In PubChem BioAssay AID2060505 (Molecular Pharmacology Branch, DTP, NCI, 2025):

System: 633275-114-R-J1-PDC complex spheroids, viability
Test: Anticancer human tumor 633275-114-R-J1-PDC patient-derived endometrial adenocarcinoma cell line growth inhibition [GQUAD]
Conditions: for IC50: curve of first compound; for viability, T/C: stronger effect = lower value; active means viability on the fitted dose curve at most 10% of control; inactive means the rest
Outline: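 Tumor cells were grown as complex spheroids with HUVEC endothelial cells and mesenchymal stem cells as stroma. G-quadruplex stabilizers were combined with targeted agents over half-log dilutions from near the clinical Cmax, or from 10 microM.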

[1] = second compound 0.0316 µM, first compound 0.0316 µM
[2] = second compound 0.0316 µM, first compound 0.1 µM
[3] = second compound 0.0316 µM, first compound 0.316 µM
[4] = second compound 0.0316 µM, first compound 1 µM
[5] = second compound 0.0316 µM, first compound 3.16 µM
[6] = second compound 0.0316 µM, first compound 10 µM
[7] = second compound 0.1 µM, first compound 0.0316 µM
[8] = second compound 0.1 µM, first compound 0.1 µM
[9] = second compound 0.1 µM, first compound 0.316 µM
[10] = second compound 0.1 µM, first compound 1 µM
[11] = second compound 0.1 µM, first compound 3.16 µM
[12] = second compound 0.1 µM, first compound 10 µM
[13] = second compound 0.316 µM, first compound 0.0316 µM
[14] = second compound 0.316 µM, first compound 0.1 µM
[15] = second compound 0.316 µM, first compound 0.316 µM
[16] = second compound 0.316 µM, first compound 1 µM
[17] = second compound 0.316 µM, first compound 3.16 µM
[18] = second compound 0.316 µM, first compound 10 µM
[19] = second compound 1 µM, first compound 0.0316 µM
[20] = second compound 1 µM, first compound 0.1 µM
[21] = second compound 1 µM, first compound 0.316 µM
[22] = second compound 1 µM, first compound 1 µM
[23] = second compound 1 µM, first compound 3.16 µM
[24] = second compound 1 µM, first compound 10 µM
[25] = second compound 3.16 µM, first compound 0.0316 µM
[26] = second compound 3.16 µM, first compound 0.1 µM
[27] = second compound 3.16 µM, first compound 0.316 µM
[28] = second compound 3.16 µM, first compound 1 µM
[29] = second compound 3.16 µM, first compound 3.16 µM
[30] = second compound 3.16 µM, first compound 10 µM
[31] = second compound 10 µM, first compound 0.0316 µM
[32] = second compound 10 µM, first compound 0.1 µM
[33] = second compound 10 µM, first compound 0.316 µM
[34] = second compound 10 µM, first compound 1 µM
[35] = second compound 10 µM, first compound 3.16 µM
[36] = second compound 10 µM, first compound 10 µM
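Further: spheroids exposed to the agents for seven days.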
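Wherever viability, T/C is given: percent of DMSO vehicle control viability which is 100%.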

COc1ncnc(C2CC2)c1-c1ncc2cnn(Cc3ccc(-c4nc(C(F)(F)F)cn4C(C)C)cc3)c2n1 + CN(C)c1ccc(Nc2c3ccc(NC(=O)CCN4CCCC4)cc3nc3cc(NC(=O)CCN4CCCC4)ccc23)cc1
> 10000 nM: IC50 (second compound 0.0316 µM) | IC50 (second compound 0.1 µM) | IC50 (second compound 0.316 µM) | IC50 (second compound 1 µM) | IC50 (second compound 3.16 µM)
< 31.6 nM: IC50 (second compound 10 µM)
inactive: viability, T/C [1] 102% | viability, T/C [2] 102% | viability, T/C [3] 84.5% | viability, T/C [4] 101% | viability, T/C [5] 102% | viability, T/C [6] 95.4% | viability, T/C [7] 101% | viability, T/C [8] 90.8% | viability, T/C [9] 88.4% | viability, T/C [10] 99% | viability, T/C [11] 93.3% | viability, T/C [12] 87.3% | viability, T/C [13] 86.8% | viability, T/C [14] 103% | viability, T/C [15] 86.8% | viability, T/C [16] 94.5% | viability, T/C [17] 97.2% | viability, T/C [18] 94% | viability, T/C [19] 89.3% | viability, T/C [20] 97.9% | viability, T/C [21] 92.6% | viability, T/C [22] 69.2% | viability, T/C [23] 96.6% | viability, T/C [24] 92.3% | viability, T/C [25] 79.8% | viability, T/C [26] 81.7% | viability, T/C [27] 81.2% | viability, T/C [28] 76.1% | viability, T/C [29] 84.4% | viability, T/C [30] 67.8% | viability, T/C [31] 32.7% | viability, T/C [32] 30.2% | viability, T/C [33] 31.1% | viability, T/C [34] 27.2% | viability, T/C [35] 26.6% | viability, T/C [36] 12.8%

COc1cccc2c1C(=O)c1c(O)c3c(c(O)c1C2=O)CC(O)(C(=O)CO)CC3OC1CC(N)C(O)C(C)O1 (centres undefined) + Cc1[nH]c2ccc(F)cc2c1-c1nc2c3cccnc3c3ncccc3c2[nH]1
active: viability, T/C [5] 2.36% | viability, T/C [6] 1.69% | viability, T/C [11] 1.91% | viability, T/C [12] 1.66% | viability, T/C [17] 2.16% | viability, T/C [18] 1.4% | viability, T/C [23] 1.92% | viability, T/C [24] 1.57% | viability, T/C [29] 2.97% | viability, T/C [30] 1.41% | viability, T/C [35] 2.39% | viability, T/C [36] 1.46%
73 nM: IC50 (second compound 1 µM)
89.7 nM: IC50 (second compound 0.0316 µM)
82.3 nM: IC50 (second compound 0.316 µM)
39.7 nM: IC50 (second compound 10 µM)
inactive: viability, T/C [1] 64.4% | viability, T/C [2] 47.5% | viability, T/C [3] 32% | viability, T/C [4] 21.5% | viability, T/C [7] 65.3% | viability, T/C [8] 46.2% | viability, T/C [9] 35.3% | viability, T/C [10] 20.6% | viability, T/C [13] 62.5% | viability, T/C [14] 46% | viability, T/C [15] 32.3% | viability, T/C [16] 20.3% | viability, T/C [19] 62.2% | viability, T/C [20] 44% | viability, T/C [21] 30.6% | viability, T/C [22] 20.6% | viability, T/C [25] 54.4% | viability, T/C [26] 40.2% | viability, T/C [27] 30.9% | viability, T/C [28] 18.6% | viability, T/C [31] 52.9% | viability, T/C [32] 39.7% | viability, T/C [33] 30.1% | viability, T/C [34] 19.4%
45.4 nM: IC50 (second compound 3.16 µM)
94.6 nM: IC50 (second compound 0.1 µM)
